Assay results from BindingDB's records for doi:10.1016/j.ejmech.2016.12.029 (University of Auckland, 2017).
pEC50: −log10 of the molar value.

Assay: Inhibition of recombinant human IDO1 expressed in yeast assessed as yeast growth restoration after 40 to 45 hrs in presence of galactose

CN1CCN(C(CO)Cc2ccccc2)CC1 (stereo unspecified)
pEC50: 5.70
